Series [1] concerns mice. As to the kind of experiment: Holeboard test in mice. In kind it is in vivo, male Swiss mice. The following applies: mice, 1 mg/kg; vehicle=8.5±1.2, p<0.001. The method, then:
(§1) Adult male Wistar rats weighing 250 g were used for biochemical experiments. Adult male Swiss male weighing 25-30 g were used for pharmacological assays except for inhibitory avoidance and tail flick tests were done in rats. Animals were housed in a controlled environment, with free access to food and water and maintained on a 12 h/12 h day/night cycle.
The test was performed according to Viola et al. (1994) and Wolfman et al. (1994). The number of head dips and the time spent head dipping were counted during 5 min.

Series [2] relates to mice. As to the kind of experiment: Pentylenetetrazole (PTZ)-induced seizures. In kind it is in vivo. The protocol: The effects of DNF on pentylenetetrazole (PTZ)--induced convulsions were evaluated according to Medina et al., (1990) with slight modifications. PTZ (200 mg/kg) was administered i.p. to mice 15 min after injection of drug or vehicle. The number of mice presenting clonic convulsions was determined.
Data are expressed as the percentage of mice presenting clonic or tonic-clonic seizures. ^3 number of animals per group.

The target of series [3] is central benzodiazepine receptor. As to the kind of experiment: [3H]-FNZ binding to crude synaptosomal membranes from rat CNS regions. The arrangement: species or system rat (Wistar). The method, then: as §1
Displacement curves were performed using [^3 ]-FNZ or [^3 H]-zolpidem ([^3 H]-ZOLP) as radioligands in washed crude synaptosomal membranes from rat cerebral cortex, cerebellum, hippocampus, striatum or spinal cord. Membrane preparations were carried out according to Medina et al. (1990). Briefly, brains were rapidly dissected out on ice and the different structures were homogenized in 10 volumes of 0.32 M sucrose and centrifuged at 900×g for 10 min. The resulting supernatant was centrifuged at 100,000×g for 30 min and the pellet washed twice in 25 mM Tris HCl buffer pH 7.4 at 100,000×g for 30 min, and stored at -20° C. until used.
For [^3 H]-FNZ (84 Ci/mmol, NEN) displacement curves, different concentrations of DNF (0.3 nM to 1 μM) were added to 0.3 mg membrane protein suspended in 1 ml of 25 mM Tris HCl buffer in presence of 0.6 nM of the radioligand. Protein determination was carried out by using the method of Lowry et al. (1951). Nonspecific binding (<5%) was determined in parallel incubations with 10 μM FNZ (Hoffmann-La Roche). The incubation was carried out at 4° C. for 2 h. The assays were determined by filtration under vacuum through Whatman GF/A glass fiber filters, and two washes with 3 ml each of incubation medium. Filters were dried and counted after the addition of 5 ml 2,5-diphenyl-oxazole (PPO)-xylene as scintillation fluid.

Series [4] relates to mice. As to the kind of experiment: Elevated plus-maze test in mice (Section 1, incl. Table 1). Type of series: in vivo, male Swiss mice. The following applies: Mus musculus, ip, read-out: minimum dose necessary to produce similar anxiolytic effects. The protocol:
Performance of mice on the elevated plus-maze test was used to measure anxiolytic actions in rodents, following i.p. administration of vehicle or compound (II).
The animals used in the pharmacological test were male Swiss mice from breeding stock, weighing 28-35 g. They were placed n groups of ten with free access to water and food, and maintained on 12 h/12 h day/night cycle. In all the tests the mice were i.p. injected with VEH or a solution of the drug, 15 minutes before the assay.
The elevated plus-maze set-up consisted of a maze of two open arms, 25×5 cm, crossed by two closed arms of the same dimensions, with free access to all arms from the crossing point. The closed arms had walls 35 cm high all around. The maze was suspended 50 cm from the room floor. Mice were placed on the central part of the cross facing an open arm. The number of entries and the time spent going into open and closed arms were counted during 5 minutes. […] The total exploratory activity (number of entries in both arms) was also determined.

Series [5] relates to mice. As to the kind of experiment: Horizontal wire test in mice. In kind it is in vivo, male Swiss mice. The following applies: mice, i.p. The method, then:
as §1
This test was carried out as previously described (Viola et al., 1994; Wolfman et al., 1994; Viola et al., 1995). The test took place after two trials, performed at 5 min intervals. A myorelaxant drug will impair mice to grasp the wire (Bonetti et al., 1982). The effect of DNF )1 mg/kg) on DZ-induced myorelaxation was also determined.

Series [6] deals with mice. As to the kind of experiment: Elevated plus maze test in mice (Section 2). In kind it is in vivo, male Swiss mice. The conditions noted are these: mice. The method, then:
as §1
An Opto-varimex® apparatus was used according to Viola et al. (1994). The apparatus discriminates between total and ambulatory activities. An increase in the number of transitions through the beams reflects augmented locomotor activity. In this and all following tests in mice, animals were i.p. injected with the vehicle, or with DNF 20 min before the beginning of the tests. In each session, control mice were tested in parallel with those animals receiving drug treatment.
The test was performed in the same session immediately after the locomotor activity measurement (Viola et al., 1994; Wolfman et al., 1994). […] A series of experiments with the injection of the selective central benzodiazepine receptor antagonist Ro 15-1788 (File and Pellow, 1986) was also carried out.

For series [7], the target named is central benzodiazepine receptors (BDZ-Rs). As to the kind of experiment: 3H-FNZ binding to rat brain synaptosomal membranes (Section 3). The method, then: In brief, for each assay, triplicate samples of the membranes, containing 0.2 to 0.4 mg protein were suspended in a final volume of 1 mL of 0.25 mM Tris--HCl buffer, pH 7.3. The incubation was carried out at 4° C. for 60 min with 0.6 nM ^3 H--FNZ. to study the binding saturation, a range of 0.3 to 10 nM ^3 H--FNZ was used. […] The assays were terminated by filtration under vacuum through Whatman GF/A glass-fiber filters, and three washes with 3 mL each of incubation medium. Filters were dried and counted after the addition of 5 mL of 2,5-diphenyloxazole/xylene as scintillation fluid.
The binding of ^3 H--FNZ was carried out as for (i) above.

Series [8] concerns the target benzodiazepine (BDZ-R) receptor. As to the kind of experiment: 3H-Flunitrazepam binding to extensively washed bovine cerebral cortical membranes. The conditions noted are these: read-out: Ki, inhibition of 3H-FNZ binding; bovine cerebral cortical membranes; 0.6 nM 3H-FNZ, 4° C., 60 min; n=3. The protocol: Non-specific nitration of the flavone nucleus yielded the two nitrated flavone (II) and (IIa). […] Briefly, ^3 H-FNZ binding was carried out as described by Levy de Stein, M., Medina, J. H., De Robertis E., Mol. Brain Res. 1985, 5, 9-15. In brief, for each assay, triplicate samples of the membranes, containing 0.2 to 0.4 mg protein were suspended in a final volume of 1 mL of 0.25 mM Tris-HCl buffer, pH 7.3. The incubation was carried out at 4° C. for 60 minutes with 0.6 nM ^3 -FNZ. To study the binding saturation, a range of 0.3 to 10 nM ^3 H-FNZ was used. Non-specific binding was determined in parallel incubations in the presence of 3 μM FNZ, and represented 5-15% of total. The assays were terminated by filtration under vacuum though Whatman GF/A glass-fiber filters, and three washes with 3 mL each of incubation medium. Filters were dried and counted after the addition of 5 mL of 2,5-diphenyloxazole/xylene as scintillation fluid. Bovine cerebral cortical membranes were treated substantially following the method of Medina, J. H., De Robertis, E. J., J. Neurochem. 1985, 44, 1340-1345.

The next series deals with serotonin 1A receptors. As to the kind of experiment: 3H-8-OH-DPAT binding, compound (IV). The following applies: 10 μM.
Another series relates to GABAA receptors. As to the kind of experiment: 3H-muscimol binding, compound (IV). The conditions noted are these: 10 μM.
In another series the test system is AMPA-glutamate receptors. As to the kind of experiment: 3H-AMPA binding, compound (IV). The following applies: 10 μM.
For series [9], the system named is mice. As to the kind of experiment: Elevated plus-maze, compound (IV). Type of series: in vivo, male Swiss mice. The conditions noted are these: i.p., 0.1 mg/kg, preliminary. The protocol:
The animals used in the pharmacological test were male Swiss mice from our breeding stock, weighting 28-35 g. They were placed in groups of ten with free access to water and food, and maintained on 12 h/12 h day/night cycle. The elevated plus-maze set-up consisted of a maze of two open arms, 25×5 cm, crossed by two closed arms of the same dimensions, with free access to all arms from the crossing point. The closed arms had walls 35 cm high all around. The maze was suspended 50 cm from the room floor. Mice were placed on the central part of the cross facing an open arm. The number of entries and the time spend going into open and closed arms were counted during 5 min. A selective increase in the parameters corresponding to open arms revels an anxiolytic effect. The total exploratory activity (number of entries in both arms) was also determined according to the method of Pellow, S. J. et al. Neurosci. Meth. 1986, 14, 149; Lister, R. G. Psychopharmacology 1987, 92, 180).

Series [10] relates to cholinergic-muscarinic receptors. In kind it is binding. The following applies: 10 μM.
The mark [11] stands for this setting: rat cerebral cortex, read-out: Ki, 3H-FNZ binding.

Like-named read-outs stand apart in the source and are kept apart here.

By Ki is commonly meant a dissociation constant, usually derived from enzyme kinetics or from competition with a known ligand.

In the series with mice [1], `CN1C(=O)CN=C(c2ccccc2)c2cc(Cl)ccc21` [Diazepam, reference compound] registered a head dips of 1.2±0.5. Besides, the “% of convulsing mice” value in the series on mice [2] (DZ 0.3 mg/kg, n=6, p<0.001 (VEH + PTZ 96)) is on record as 33.3%; in the series with mice [2] (DZ 1.0 mg/kg, n=12, p<0.001), 42%; in the series on mice [2] (DZ 3.0 mg/kg, n=9, p<0.001), 0%. In the series with mice [2] (mice, 0.3-3 mg/kg, p<0.001, PTZ 200 mg/kg), the “anticonvulsant activity vs PTZ” value is “showed anticonvulsant activity”. Further, the Ki in series [3] (all the brain regions studied, read-out: Ki, [3H]-FNZ binding) was approximately 7 nM. Also, the minimal effective dose in the series on mice [4] amounted to 0.03 mg/kg. For the same compound, in the series with mice [5] (1 mg/kg), the myorelaxant effect entry is on record as “marked myorelaxant effect”. The “animals showing myorelaxant effect” value in the series on mice [5] (DZ 1 mg/kg) is reported as 8 animals out of 10. In addition, in the series with mice [6], the “dose needed to increase open arm entries relative to DNF” value was 10-100 times higher. Further, the “percentage of open arm entries” value in the series on mice [6] (0.3 mg/kg, vehicle=22.9±2.0%, p<0.05) was found to be 35.0±4.5%.
Consider `O=c1cc(-c2ccccc2[N+](=O)[O-])oc2ccc(Br)cc12` [Compound (III), 6-bromo-2'-nitroflavone], for which, in series [7] (setting [11]), the Ki worked out at 208 nM.
For `O=c1cc(-c2ccc([N+](=O)[O-])cc2)oc2ccc([N+](=O)[O-])cc12` [(IIa), 6,4'-Dinitroflavone], the Ki in [8] is 17000 ± 5000 nM.
`O=c1cc(-c2cccc([N+](=O)[O-])c2)oc2ccc(F)cc12` [(IX), 6-Fluoro-3'-nitroflavone]: in [7] (setting [11]), the Ki amounted to 170 nM.
Same read-out and setting: the result for `O=c1cc(-c2cccc([N+](=O)[O-])c2)oc2ccccc12` [(VI), 3'-nitroflavone] reads 250 nM.
Turning to `Cc1nnc2ccc(-c3cccc(C(F)(F)F)c3)nn12` [CL 218,872, reference compound], the inhibition constant Ki in [3] (cortical membranes, high affinity site, read-out: high affinity Ki value) came out at 10 nM; in series [3] (cortical membranes, low affinity site, read-out: low affinity Ki value), 1200 nM.
For the compound `O=c1cc(-c2cccc([N+](=O)[O-])c2)oc2ccc(Cl)cc12` [(VIII), 6-Chloro-3'-nitroflavone], the Ki in series [7] (setting [11]) worked out at 8 nM.
Same read-out and setting: the result for `O=c1cc(-c2ccc([N+](=O)[O-])cc2)oc2ccc(Br)cc12` [Compound (V), 6-bromo-4'-nitroflavone] reads 220 nM.
For the compound `O=c1cc(-c2cccc([N+](=O)[O-])c2)oc2ccc(Br)cc12` [Compound (IV), 6-bromo-3'-nitroflavone], the “displacement of 3H-8-OH-DPAT binding” value in the series on serotonin 1A receptors was “does not displace”. In the series with GABAA receptors, the “displacement of [3H]-muscimol binding” value was “does not displace”. In addition, the “displacement of 3H-AMPA binding” value with AMPA-glutamate receptors is listed as “does not displace”. In addition, in the series on mice [9], the “percentage of entries in the open arms” value was “increasing both the percentage of entries in the open arms”. Further, in the series with mice [9], the “time spent in the open arms” value was “increasing both the percentage of entries in the open arms and the time spent in these arms”. The Ki in [7] (cerebellum, n=4, read-out: Ki SEM, 3H-FNZ binding) was 3.6 ± 0.1 nM; in series [7] (cerebral cortex, first (high affinity) population of sites, n=6, read-out: Ki SEM, 3H-FNZ binding), 1.2 nM; in [7] (cerebral cortex, second population of sites, n=6, read-out: Ki SEM, 3H-FNZ binding), 15.5 nM; in series [7] (hippocampus, n=2, read-out: Ki SEM, 3H-FNZ binding) it was 9.6 ± 0.6 nM; in series [7] (setting [11]) it was 220 ± 1 nM; in series [7] (spinal cord, n=3, read-out: Ki SEM, 3H-FNZ binding) it was 12.7 ± 0.5 nM. The Ki in series [7] (striatum, n=3, read-out: Ki SEM, 3H-FNZ binding) came out at 9.8 ± 1.6 nM. Moreover, the “Scatchard analysis of 3H-FNZ saturation curves” value in series [7] (cerebral cortical membranes, data not shown) is reported as “competitive ligand for the BDZ-R”. The “affinity in spinal cord vs highest value in cerebral cortex” value in series [7] (ratio) came out at 10 times lower. Further, the “potency for displacement of 3H-FNZ, type II BDZ-R regions vs cerebellum” value in [7] (ratio) is recorded as 3-4 times lower. Also, in [10], the “displacement of 3H-QNB binding” value is on record as “does not displace”.

The values above are taken from patent publication US6080780A, “Use of nitroflavonoids for the treatment of anxiety” (University of Strathclyde, priority 1995, dated 2000).
